Columns and labels:
[1] = tested on: diamond back moth (Plutella xylostella); type: in vivo; conditions: 1,000 ppm; Chinese cabbage seedling with eggs immersed about 30 seconds; counted six days after the immersion; 25° C.
Source text: Insecticidal effect on diamond back moth (Plutella xylostella)
Adult diamond back moths were released and allowed to oviposit on a Chinese cabbage seedling. […] Six days after the immersion, the hatched insects were counted. […] [formula] Criterion • A - - - Mortality 100% • B - - - Mortality 99-90% • C - - - Mortality 89-80% • D - - - Mortality 79-50%

[2] = tested on: Common cutworm (Spodoptera litura); type: in vivo; conditions: 500 ppm; cabbage leaf immersed about 30 seconds; second-instar larvae; eight days after the inoculation; 25° C.
Source text: Insecticidal Effect on Common cutworm (Spodoptera litura)

| SMILES | insecticidal effect (activity ranking by mortality) [1] | insecticidal effect (activity ranking by mortality) [2] |
| --- | --- | --- |
| Cc1cc(C(C)(C)C)sc1NC(=O)c1cccc(I)c1C(=O)NC(C)C [Q1-12] | B or higher | – |
| Cc1cc(C(C)(C)C)sc1NC(=O)c1c(I)cccc1C(=O)NC(C)C [Q1-41] | B or higher | – |
| Cc1ccsc1NC(=O)c1c(I)cccc1C(=O)NC(C)C [Q1-42] | B or higher | – |
| CC(C)NC(=O)c1c(Cl)cccc1C(=O)Nc1cc(-c2ccc(Br)cc2)on1 [Q4-6] | B or higher | – |
| Cc1c(NC(=O)c2c(Cl)cccc2C(=O)NC(C)C)noc1-c1ccc(Cl)cc1 [Q4-8] | B or higher | – |
| Cc1c(NC(=O)c2cccc(I)c2C(=O)NC(C)C)noc1C(F)(F)F [Q4-12] | B or higher | – |
| Cc1c(NC(=O)c2c(I)cccc2C(=O)NC(C)C)noc1C(F)(F)F [Q4-45] | B or higher | – |
| Cc1cc(NC(=O)c2cccc([N+](=O)[O-])c2C(=O)NC(C)C)n(C)n1 [Q6-6] | B or higher | – |
| Cc1c(C(F)(F)F)noc1NC(=O)c1cccc(I)c1C(=O)NC(C)C [Q6-8, N^1-(4-methyl-3-trifluoromethyl-isoxazol-5-yl)-N^2-isopropyl-3-iodophthalamide] | B or higher | – |
| CC(C)NC(=O)c1c(Cl)cccc1C(=O)Nc1nccs1 [Q8-1] | B or higher | – |
| Cc1csc(NC(=O)c2cccc(Cl)c2C(=O)NC(C)C)n1 [Q8-2] | B or higher | – |
| CC(C)NC(=O)c1c(Cl)cccc1C(=O)Nc1nc(C(F)(F)F)cs1 [Q8-3] | B or higher | – |
| CC(C)NC(=O)c1c(Cl)cccc1C(=O)Nc1nc(-c2ccccc2)c(Cl)s1 [Q8-5] | B or higher | – |
| CCCNC(=O)c1c(Cl)cccc1C(=O)Nc1nc(C)c(Oc2ccccc2)n1C [Q8-11] | B or higher | – |
| CC(C)NC(=O)c1cccc(Cl)c1C(=O)Nc1nc(C(F)(F)F)cs1 [Q8-13] | B or higher | – |
| CC(C)NC(=O)c1cccc(Cl)c1C(=O)Nc1nc(-c2ccccc2)cs1 [Q8-14] | B or higher | – |
| CC(C)NC(=O)c1cccc(Cl)c1C(=O)Nc1nc(-c2ccccc2)c(Cl)s1 [Q8-15] | B or higher | – |
| CCN(CC)C(=O)c1c(I)cccc1C(=O)Nc1nc(-c2ccc(Cl)cc2)cs1 [Q8-53] | B or higher | – |
| Cc1sc(I)nc1NC(=O)c1cccc(I)c1C(=O)NC(C)C [Q9-15] | B or higher | – |
| Cc1ncoc1NC(=O)c1cccc(I)c1C(=O)NC(C)C [Q10-7] | B or higher | – |
| CC(C)NC(=O)c1c(I)cccc1C(=O)Nn1cnnc1 [Q15-1] | B or higher | – |

| SMILES | insecticidal effect (activity ranking by mortality) [1] | insecticidal effect (activity ranking by mortality) [2] |
| --- | --- | --- |
| Cc1cc(C(F)(C(F)(F)F)C(F)(F)F)cnc1NC(=O)c1cccc(I)c1C(=O)NC(C)C [Q26-11] | B or higher | B or higher |
| CSCC(C)(C)NC(=O)c1c(I)cccc1C(=O)Nc1cnc(C(F)(C(F)(F)F)C(F)(F)F)cc1C [Q27-150] | B or higher | B or higher |
| Cc1cc(C(F)(C(F)(F)F)C(F)(F)F)ncc1NC(=O)c1cccc(I)c1C(=O)NC(C)(C)C[S+](C)[O-] (centres unmarked) [Q27-152] | – | B or higher |
| Cc1nc(C(F)(C(F)(F)F)C(F)(F)F)ccc1NC(=O)c1cccc(I)c1C(=O)NC(C)(C)C[S+](C)[O-] (centres unmarked) [Q27-153] | B or higher | B or higher |
| Cc1nc(C(F)(C(F)(F)F)C(F)(F)F)ccc1NC(=O)c1cccc(I)c1C(=O)NC(C)(C)CS(C)(=O)=O [Q27-155] | B or higher | B or higher |
| CC(C)NC(=O)c1c(I)cccc1C(=O)Nc1ccc(C(F)(C(F)(F)F)C(F)(F)F)nc1Cl [Q27-230] | B or higher | B or higher |
| CCN(CC)C(=O)c1c(I)cccc1C(=O)Nc1ccc(C(F)(C(F)(F)F)C(F)(F)F)nc1Cl [Q27-231] | B or higher | B or higher |
| CSCC(C)NC(=O)c1c(I)cccc1C(=O)Nc1ccc(C(F)(C(F)(F)F)C(F)(F)F)nc1Cl (centres unmarked) [Q27-232] | B or higher | B or higher |
| CSCC(C)(C)NC(=O)c1c(I)cccc1C(=O)Nc1ccc(C(F)(C(F)(F)F)C(F)(F)F)nc1 [Q27-233] | B or higher | B or higher |
| CSCC(C)(C)NC(=O)c1c(I)cccc1C(=O)Nc1ccc(C(F)(C(F)(F)F)C(F)(F)F)nc1Cl [Q27-234] | B or higher | B or higher |
| Cc1nc(C(F)(C(F)(F)F)C(F)(F)F)ccc1NC(=O)c1cccc(I)c1C(=O)NC(C)(C)C[S+](C)[O-] (centres unmarked) [Q27-244] | B or higher | – |
| Cc1nc(OC(F)(F)C(F)C(F)(F)F)ccc1NC(=O)c1cccc(I)c1C(=O)NC(C)C (centres unmarked) [Q27-391] | B or higher | – |
| CSCC(C)(C)NC(=O)c1c(I)cccc1C(=O)Nc1ccc(OC(F)(F)C(F)C(F)(F)F)nc1C (centres unmarked) [Q27-393] | B or higher | – |
| CSCC(C)(C)NC(=O)c1c(I)cccc1C(=O)Nc1ccc(OC(F)(F)C(F)C(F)(F)F)nc1C (centres unmarked) [Q27-396] | B or higher | – |
| CC(C)NC(=O)c1c(Cl)cccc1C(=O)Nc1ccc(C(F)(C(F)(F)F)C(F)(F)F)nc1Cl [Q27-459] | – | B or higher |
| Cc1nc(Oc2ccc(C(F)(F)F)cc2)ccc1NC(=O)c1cccc(I)c1C(=O)NC(C)C [Q27-466] | – | B or higher |
| CC(C)NC(=O)c1c(I)cccc1C(=O)Nc1c(Cl)ncnc1Cl [Q32-11] | B or higher | – |
| COc1cc(OC)nc(NC(=O)c2ccccc2C(=O)NC(C)C)n1 [Q33-1] | B or higher | – |
| COc1nc(NC(=O)c2cccc(I)c2C(=O)NC(C)C)nc(OC)c1C(F)(C(F)(F)F)C(F)(F)F [Q33-10] | B or higher | – |
| CCN(CC)C(=O)c1c(I)cccc1C(=O)Nc1cnccn1 [Q34-30] | B or higher | – |

— US6875768B1, “Phthalamide derivatives, intermediates in the production thereof, and agricultural/horticultural insecticides and method for using the same” (Nihon Nohyako Co., Ltd., priority 1999, dated 2005)
